Earlier results, collected in patent US20100215737A1, “COMBINATION PHARMACEUTICAL COMPOSITIONS” (priority 2007, published 2010).

Assays:
[1] = system: subventricular zone and dentate gyrus cells; details: young adult rats
[2] = system: endothelial nitric oxide synthase (eNOS); details: mouse, in vivo
[3] = marketed formulations
[4] = system: mdr-1a knockout and wild type mice; details: mdr-1a knockout vs wild type mice, oral
[5] = relative to small intestine
[6] = system: global ischemic insult; details: mice
[7] = system: middle cerebral artery occlusion; details: single iv bolus 0.1 mg/kg immediately or 3 h after occlusion
[8] = system: permanent and transient focal ischemia; details: >0.1 mg/kg iv immediately after onset of ischemia
[9] = target: T1, PgP (Homo sapiens, UniProt P08183)
T1 construct: PgP is found in the luminal plasma membrane of brain capillary endothelial cells (BCEC); host or cells: blood brain barrier / primary cultured BCEC
T1 sequence (P08183 whole entry): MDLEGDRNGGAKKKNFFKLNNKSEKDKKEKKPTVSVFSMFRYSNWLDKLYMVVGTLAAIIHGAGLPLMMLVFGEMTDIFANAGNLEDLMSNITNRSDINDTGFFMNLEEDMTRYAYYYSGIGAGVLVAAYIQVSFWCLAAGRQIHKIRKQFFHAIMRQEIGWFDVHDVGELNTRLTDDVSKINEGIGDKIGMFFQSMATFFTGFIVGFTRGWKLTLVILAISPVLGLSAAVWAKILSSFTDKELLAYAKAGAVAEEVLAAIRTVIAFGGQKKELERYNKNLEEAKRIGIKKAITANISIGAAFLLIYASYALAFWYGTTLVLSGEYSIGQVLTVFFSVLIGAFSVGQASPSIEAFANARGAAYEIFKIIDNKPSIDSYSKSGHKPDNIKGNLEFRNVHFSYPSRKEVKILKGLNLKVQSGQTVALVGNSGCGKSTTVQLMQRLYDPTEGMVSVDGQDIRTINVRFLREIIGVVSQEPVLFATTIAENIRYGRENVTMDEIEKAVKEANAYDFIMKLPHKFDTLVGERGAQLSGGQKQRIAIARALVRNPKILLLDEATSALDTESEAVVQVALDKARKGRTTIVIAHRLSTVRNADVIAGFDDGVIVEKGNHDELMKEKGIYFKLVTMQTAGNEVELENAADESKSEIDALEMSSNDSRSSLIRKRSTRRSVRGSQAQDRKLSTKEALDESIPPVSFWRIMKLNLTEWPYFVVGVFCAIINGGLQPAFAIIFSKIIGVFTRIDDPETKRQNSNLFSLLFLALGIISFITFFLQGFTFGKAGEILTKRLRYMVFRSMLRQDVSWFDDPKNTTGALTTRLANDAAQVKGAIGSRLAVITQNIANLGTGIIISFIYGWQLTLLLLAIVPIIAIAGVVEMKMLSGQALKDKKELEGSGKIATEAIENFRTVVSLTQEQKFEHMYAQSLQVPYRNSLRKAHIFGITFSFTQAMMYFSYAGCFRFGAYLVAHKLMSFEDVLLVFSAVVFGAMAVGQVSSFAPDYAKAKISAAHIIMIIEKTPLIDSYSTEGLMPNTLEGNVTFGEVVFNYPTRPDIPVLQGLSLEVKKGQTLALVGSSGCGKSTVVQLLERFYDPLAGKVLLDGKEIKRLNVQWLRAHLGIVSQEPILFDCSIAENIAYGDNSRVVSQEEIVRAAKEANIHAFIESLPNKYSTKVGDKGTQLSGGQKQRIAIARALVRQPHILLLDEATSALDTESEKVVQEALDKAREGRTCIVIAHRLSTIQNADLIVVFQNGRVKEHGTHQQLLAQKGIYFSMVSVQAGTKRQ

[10] = system: middle cerebral artery occlusion (MCO); details: 0.32 to 1.0 mg/kg iv immediately after occlusion
[11] = system: MCO
[12] = system: peripheral nerve damage; details: after peripheral nerve damage
[13] = system: ischemic damage in the rat cortex; details: in vivo
[14] = system: transient focal ischemia; details: in vivo
[15] = system: transient global ischemia; details: 1 mg/kg iv immediately after reperfusion
[16] = human, in vivo
[17] = system: CYP; details: concentration of up to 1 μM
[18] = system: APP holoprotein and mRNA; details: 50 microM
[19] = target: T1, PgP; details: dose-depended effect

## NCCN(CCN)/[N+]([O-])=N/O [DETA/NONOate, (Z)-1-[N-(2-aminoethyl)-N-(2-ammonioethyl)amino]diazen-1-ium-1,2-diolate]
[1]
  cell proliferation and migration in the subventricular zone and the dentate gyrus: significantly increases cell proliferation and migration

## CC[C@H](C)C(=O)O[C@H]1CCC=C2C=C[C@H](C)[C@H](CC[C@@H]3C[C@@H](O)CC(=O)O3)[C@H]21 [Mevastatin]
[2]
  cerebral blood flow (CBF): augmented absolute CBF
  eNOS expression: increase in eNOS mRNA and protein levels

## COCCOC(=O)C1=C(C)NC(C)=C(C(=O)OC(C)C)C1c1cccc([N+](=O)[O-])c1 (stereo not drawn) [Nimodipine]
other
  solubility in water: practically insoluble in water
[3]
  bioavailability after oral administration, average: approximately 25%

## C=CC[C@@H]1/C=C(\C)C[C@H](C)C[C@H](OC)[C@H]2O[C@@](O)(C(=O)C(=O)N3CCCC[C@H]3C(=O)O[C@H](/C(C)=C/[C@@H]3CC[C@@H](O)[C@H](OC)C3)[C@H](C)[C@@H](O)CC1=O)[C@H](C)C[C@@H]2OC [Tacrolimus]
[4]
  blood concentrations: significantly higher
  concentration in brain tissue, fold higher: 10 fold
  total clearance, reduction: 66%
[5]
  ileum and colonic absorption efficiency: half that observed for the small intestine
[6]
  reduction of hippocampal damage: more than 80%
[7]
  cortical brain damage: reducing cortical brain damage
  reductions of cerebral metabolic rate of oxygen and oxygen extraction function: significantly attenuated
[8]
  ischemic brain damage: significant reduction in ischemic brain damage
[9]
  affinity for PgP: ~0.1 µM
[10]
  infarction area: dose-dependently reduced the infarction area
[11]; 1 mg/kg iv alone, 1, 2 or 3 h after occlusion
  neuroprotective effect, drug alone: neuroprotective effects when administered alone up to 1 h following occlusion
[11]; tacrolimus 1 mg/kg plus same dose of rt-PA iv
  brain damage, combination with rt-PA: significant reduction in brain damage was observed at up to 2 h following occlusion
[12]
  increase of axonal growth: 20%
[13]
  reduction of ischemic damage in the rat cortex: up to 70%
[14]
  peptidyl-prolyl isomerase activity: blocked the increase in peptidyl-prolyl isomerase activity
  reduction of infarct size: 53%
[15]
  neuroprotective effect: long-lasting neuroprotective effects
[16]
  incidence of diabetes: 20 % of all patients
[17]
  effect on CYP activities: little detectable effect
[18]
  increases in APP holoprotein and mRNA caused by PGE2 treatment: completely inhibited

## O=C(O)[C@H]1O[C@@H](Oc2cc3oc(-c4ccccc4)cc(=O)c3c(O)c2O)[C@H](O)[C@@H](O)[C@@H]1O [baicalin]
[19]
  transport of nimodipine across the BBB: increased the transport of nimodipine across the BBB

## COc1ccc2cc3[n+](cc2c1OC)CCc1cc2c(cc1-3)OCO2 [berberine]
[19]
  transport of nimodipine across the BBB: increased the transport of nimodipine across the BBB
